Values joined by “and” are separate entries in the source; they are usually repeats but may differ in a detail not shown here. Equal entries are not always repeated.
Assays:
[1] = Plasma concentration of active ingredient in patients, measured by HPLC (Example 3); assay type: in vivo, human
Description: To a total of 11 patients, a single dose of 2.0 mg, 4.0 mg, or 6.0 mg of tamibarotene was administered.
Moreover, to a total of 6 patients, repeated doses of 8.0 mg or 10.0 mg of tamibarotene were administered.
For the 2.0 mg dose, one tablet (2 mg of tamibarotene) was administered after breakfast using a tablet of 2 mg tamibarotene; for the 4.0 mg dose, one tablet (2 mg of tamibarotene) was administered after breakfast and one tablet (2 mg of tamibarotene) was administered after dinner; and for the 6.0 mg dose, two tablets (4 mg of tamibarotene) were administered after breakfast and one tablet (2 mg of tamibarotene) was administered after dinner.
For the 8.0 mg dose, two tablets (4 mg of tamibarotene) after breakfast and two tablets (4 mg of tamibarotene) after dinner were administered repeatedly for 35 to 46 days, using a tablet of 2 mg tamibarotene. For the 10.0 mg dose, three tablets (6 mg of tamibarotene) after breakfast and two tablets (4 mg of tamibarotene) after dinner were administered repeatedly for 34 to 59 days, using a tablet of 2 mg tamibarotene. […]

[2] = system: chronic graft versus host disease (chronic GVHD); test: Clinical study of efficacy and safety of tamibarotene for chronic GVHD (Examples 1 and 2); assay type: in vivo, human; conditions: for Eyeball: subjects with improvement in Schirmer's test: out of the 18 subjects; for subjects for whom the overall judgment was PR: oral, start 4 mg per day, with PSL/steroid
Description: Tamibarotene was administered to a patient with chronic graft versus host disease (chronic GVHD) after allogeneic hematopoietic stem cell transplantation, and efficacy thereof was studied. Main selection criteria for subjects are as follows: • (A) An age is 18 years or older and younger than 85 years • (B) A Karnofsky performance status (KPS) is 60 or more • (C) A steroid treatment-refractory or steroid treatment-dependent patient who has started treatment with 0.5 mg/kg or more of PSL (prednisolone) (or received corresponding steroid treatment) as a first-line treatment, and who falls under any of the following (1) through (4): • (1) A patient who needs additional treatment because of exacerbation even after 1 mg/kg or more of PSL has been administered for 2 weeks; • (2) A patient who has not been ameliorated after 4 weeks of treatment, including administration of 0.5 mg/kg or more of PSL for 2 weeks, and needs additional treatment. • (3) A patient whose GVHD symptom has relapsed or worsened within a period in which the dose of the steroid was reduced • (4) A steroid treatment-dependent patient for whom a dose reduction from 10 mg/day (or corresponding steroid treatment) is difficult Tamibarotene was administered to 18 subjects. As the administration method, 2 mg tablets of tamibarotene were administered orally for 24 weeks. The administration was started with 2 doses (a 2 mg tablet, twice) after breakfast and dinner, i.e., 4 mg (equivalent to 3 mg/m^2) per day. PSL or steroid administration was also continued daily. 2 mg tablets of tamibarotene were administered orally for 24 weeks. Administration was started at 4 mg (equivalent to 3 mg/m^2) per day, i.e., twice daily after breakfast and dinner (one 2 mg tablet in each of the morning and evening). If an adverse event was mild (grade 0 to 1), the dose could be increased to 8 mg per day (two 2 mg tablets in each of the morning and evening) after 4 weeks of continuation (in a case of 6 mg per day, two 2 mg tablets were to be taken after breakfast and one 2 mg tablet after dinner). In a case of grade 2 for an unexpected adverse event (for which a causal relationship could not be ruled out), or grade 3 for an expected adverse event (for which a causal relationship could not be ruled out), the dose was reduced to 2 mg per day (one tablet once after breakfast), and administration was continued. Alternatively, after a 2-week drug holiday, administration was restarted at 2 mg per day and continued, after confirming that the adverse event had improved to a grade one level lower than that before the drug holiday. However, in regard to an abnormal liver function of grade 3, in a case of a patient who had grade 3 liver dysfunction due to chronic GVHD from before enrollment, administration could be continued without dose reduction or drug holiday, even if the abnormal liver function remained at grade 3. In a case where drug holidays and restarts were repeated with administration at 2 mg per day due to an adverse event, administration could be continued by reducing the dose to 2 mg on alternate days. The survival rate without treatment failure (death, relapse, implementation of additional treatment) at the end of tamibarotene administration (week 24), i.e., failure-free survival (FFS), was evaluated. In a case where additional treatment was implemented for chronic GVHD, such a case was considered treatment failure at that point in time. In regard to the additional treatment herein, a change in the steroid dose was not considered, but in a case where the dose was increased to an amount exceeding 1 mg/kg/day, it was considered that additional treatment had been implemented. [Table 1] For the skin, eyeball, and gastrointestinal tract, the NIH organ-specific scores described in Biol. Blood Marrow Transplant, 2005 11(12), 945-56 were used. For the skin, a therapeutic effect was further evaluated using a total skin score. In addition, the 15-point Schubert scale in Table 2 was used for the oral cavity. […]

[3] = week 12 of administration, 18 subjects
[4] = week 24, out of the 16 subjects
[5] = week 24 of administration, 5/18
[6] = week 24 of administration, 18 subjects

Q: Which results are given for `CC1(C)CCC(C)(C)c2cc(NC(=O)c3ccc(C(=O)O)cc3)ccc21` [tamibarotene, 4-[(5,6,7,8-tetrahydro-5,5,8,8-tetramethyl-2-naphthalenyl)carbamoyl]benzoic acid]?
A: Plasma concentration ([1]; after 8 hours from a single dose of 2.0 mg, lowest concentration list, 480 min): 3.26 ng/mL; Plasma concentration ([1]; after 10 hours from a single dose of 4.0 mg, lowest concentration list, 600 min): 8.03 ng/mL and 7.01 ng/mL; Plasma concentration ([1]; after 24 hours from single dose of 6.0 mg, individual values, lowest concentration list, 1440 min): 1.08 ng/mL and 1.14 ng/mL and 2.50 ng/mL; Plasma concentration ([1]; after hours (figure not given) from repeated doses (46 days) of 8.0 mg, highest concentration list): 100.09 ng/mL; concentration at 4 h ([1]; human, plasma, po, 2 mg, after 4 hours from a single dose of 2.0 mg, lowest concentration list): 8.98 ng/mL; concentration at 8 h ([1]; human, plasma, po, 2 mg, after 8 hours from a single dose of 2.0 mg, lowest concentration list): 5.04 ng/mL; concentration at 10 h ([1]; human, plasma, po, 4 mg, after 10 hours from a single dose of 4.0 mg, lowest concentration list): 9.56 ng/mL; concentration at 4 h ([1]; human, plasma, po, 6 mg, after 4 hours from a single dose of 6.0 mg, highest concentration list): 80.2 ng/mL; concentration at 4 h ([1]; human, plasma, po, 6 mg, after 4 hours from repeated doses (47 days) of 6.0 mg, highest concentration list): 92.5 ng/mL; concentration at 6 h ([1]; human, plasma, po, 6 mg, after 6 hours from a single dose of 6.0 mg, lowest concentration list): 7.42 ng/mL; concentration at 10 h ([1]; human, plasma, po, 6 mg, after 10 hours from a single dose of 6.0 mg, lowest concentration list): 7.72 ng/mL; concentration at 4 h ([1]; human, plasma, po, 8 mg, after 4 hours from repeated doses (35 days) of 8.0 mg, highest concentration list): 84.6 ng/mL; concentration at 4 h ([1]; human, plasma, po, 8 mg, after 4 hours from repeated doses (46 days) of 8.0 mg, highest concentration list): 85.2 ng/mL; concentration at 24 h ([1]; human, plasma, po, 8 mg, after 24 hours from repeated doses (46 days) of 8.0 mg, lowest concentration list): 2.92 ng/mL; concentration at 2 h ([1]; human, plasma, po, 10 mg, after 2 hours from repeated doses (34 days) of 10.0 mg, highest concentration list): 88 ng/mL; concentration at 2 h ([1]; human, plasma, po, 10 mg, after 2 hours from repeated doses (58 days) of 10.0 mg, highest concentration list): 199 ng/mL; concentration at 2 h ([1]; human, plasma, po, 10 mg, after 2 hours from repeated doses (59 days) of 10.0 mg, highest concentration list): 119 ng/mL; concentration at 4 h ([1]; human, plasma, po, 10 mg, after 4 hours from repeated doses (34 days) of 10.0 mg, highest concentration list): 85.6 ng/mL; concentration at 4 h ([1]; human, plasma, po, 10 mg, after 4 hours from repeated doses (36 days) of 10.0 mg, highest concentration list): 161 ng/mL; concentration at 4 h ([1]; human, plasma, po, 10 mg, after 4 hours from repeated doses (58 days) of 10.0 mg, highest concentration list): 88.7 ng/mL; concentration at 4 h ([1]; human, plasma, po, 10 mg, after 4 hours from repeated doses (59 days) of 10.0 mg, highest concentration list): 82.1 ng/mL; concentration at 8 h ([1]; human, plasma, po, 10 mg, after 8 hours from repeated doses (36 days) of 10.0 mg, highest concentration list): 112 ng/mL; follow-up of single subjects whose overall judgment was PR ([2]; 2 years after the end of treatment, one subject per line): able to discontinue the administration of PSL and reduce the dose of FK506 at 2 years after the end of treatment without exacerbation of chronic GVHD; knee joint flexion ([2]; Case 1, start vs end of administration, 200 days, Fig. 1): notable improvement in knee joint flexion; knee joint extension ([2]; Case 1, start vs end of administration, 200 days, tamibarotene/prednisolone/tacrolimus 4 mg/15 mg/4 mg at start, Fig. 1): notable improvement in knee joint extension; cutis symptom on knee ([2]; Case 2, start vs end of administration, 137 days, Fig. 2): notable amelioration of pigmentation and skin sclerosis in the knee; cutis symptom on lower part of back ([2]; Case 2, start vs end of administration, 137 days, tamibarotene/predonine/tacrolimus 4 mg/11 mg/0.2 mg at start, Fig. 2): amelioration of pigmentation and skin sclerosis in the lower part of the lower back; oral cavity symptom ([2]; Case 3, start vs end of administration, 83 days, tamibarotene/prednisolone/tacrolimus 4 mg/10 mg/0.6 mg, Fig. 3): healing of ulcer and notable amelioration of erythema were seen in the oral cavity; response rate for each organ (Fig. 4), in words ([2]; all cases in Example 1): the effect was seen in chronic GVHD of the eyeball and liver in addition to the skin and the oral cavity, or chronic GVHD maintained without exacerbation; overall response rate ([2]; entire administered population, final analysis, NIH Consensus Development Project Criteria (2005), 6/18, 95% confidence interval 13.3% to 59.0%): 33.3%; overall response rate based on the NIH Consensus Development Project Criteria (2014) ([2]; entire administered population, sensitivity analysis, 7/18 cases, 95% confidence interval 17.3% to 64.3%): 38.9%; NIH response rate for the joints and fascia ([2]; human, in vivo): 11%; response rate for the lung function score ([2]; human, in vivo): unchanged; NIH response rate for the liver ([2]; influence of other diseases difficult to consider): 23%; Eyeball: subjects with improvement in Schirmer's test ([2]; left eye): 7 subjects; NIH response rate for the gastrointestinal tract ([2]; n=5): 20%; NIH response rate for the genitals ([2]; n=6): 17%; amelioration in the symptom after administration ([2]; patients in Examples, no amelioration before with various drugs): amelioration in the symptom was seen in all the patients; Eyeball: subjects with improvement in Schirmer's test ([2]; right eye): 5 subjects; Oral cavity: symptoms ([2]; several subjects): healing of ulcer and notable amelioration of erythema were seen in several subjects; Skin: symptoms ([2]; several subjects): notable amelioration of edema, skin sclerosis, pigmentation, or erythema in several subjects; range of joint motion ([2]; subjects in whom a therapeutic effect was confirmed): notable improvement in the range of joint motion; subjects for whom the overall judgment was SD [2, 3]: 7 subjects; subjects for whom the overall judgment was PR [2, 3]: 5 subjects; subjects in whom the dose of PSL could be reduced by 50% or more ([2]; week 24, compared with start of tamibarotene administration, 18 subjects): 3 subjects; subjects in whom the dose of PSL could be reduced ([2]; week 24, compared with start of treatment, 18 subjects): 7 subjects; Eyeball: NIH response rate ([2]; week 24, 14 subjects): 14%; Eyeball: subjects evaluated as CR ([2]; week 24, 14 subjects): No subject; Eyeball: subjects evaluated as PR ([2]; week 24, 14 subjects): two; Oral cavity: NIH response rate ([2]; week 24, 16 subjects): 25%; Oral cavity: subjects evaluated as CR ([2]; week 24, 16 subjects): Two; Oral cavity: subjects evaluated as PR ([2]; week 24, 16 subjects): two; Skin: NIH response rate ([2]; week 24, 16 subjects): 25%; Skin: subjects evaluated as CR ([2]; week 24, 16 subjects): One; Skin: subjects evaluated as PR ([2]; week 24, 16 subjects): three; Oral cavity: subjects with improved score on the 15-point Schubert scale [2, 4]: 10 subjects; Skin: subjects with improved total skin score [2, 4]: 8 subjects; failure-free survival (FFS) [2, 5]: 28%; response rate [2, 5]: 28%; subjects for whom the overall judgment was SD [2, 6]: 7 subjects; subjects for whom the overall judgment was PR [2, 6]: 5 subjects

From patent EP4744657A1, “THERAPEUTIC AGENT FOR HUMAN GRAFT VERSUS HOST DISEASE AND COMBINATION THEREOF” (National University Corporation Okayama University, priority 2023, dated 2025)
